pEC50: −log10 of the molar value.
tested on: HBV rcDNA in HepDE19 cells; assay: HepDE19 assay with bDNA quantitation of HBV rcDNA; type: cell-based, hepatitis B virus (HBV); settings: Hepatitis B virus, HepDE19, 168 h, inhibition of rcDNA formation in HepDE19 cells (HepG2 derived), Tet-free medium, 7 day incubation, Quantigene 2.0 bDNA readout, top concentration 25 μM; read-out: DE-19bDNA EC50
How it was run: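 HepDE19 cells (HepG2-derived, Tet-regulated HBV) switched to Tet-free medium, then treated 7 days at 37 °C with compound, 8-point titration from 25 μM, 0.5% DMSO. rcDNA quantified by bDNA with HBV probes; EC50/EC90 via 4-parameter fit. Viability (CC50) by CellTiter-Glo ATP on 5,000 cells/well after 4 days.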

SMILES | pEC50
CN(C(=O)Nc1ccc(F)c(Cl)c1)[C@@H]1COCc2c1c1cc(F)c(F)cc1c(=O)n2CCN [Compound 257, (S)-1-(5-(2-Aminoethyl)-8,9-difluoro-6-oxo-1,4,5,6-tetrahydro-2H-pyrano[3,4-c]isoquinolin-1-yl)-3-(3-chloro-4-fluorophenyl)-1-methylurea] | 5.51
O=C(Nc1ccc(F)c(Cl)c1)N(CCCO)C1CCCc2[nH]c(=O)cc(C(F)(F)F)c21 (centres unmarked) [Compound 3, 3-(3-Chloro-4-fluorophenyl)-1-(3-hydroxypropyl)-1-(2-oxo-4-(trifluoromethyl)-1,2,5,6,7,8-hexahydroquinolin-5-yl)urea] | 5.77
CN(C(=O)N1Cc2ccc(Cl)cc2C1)[C@@H]1COCc2[nH]c(=O)c3cc(F)c(F)cc3c21 [Compound 219, (S)-5-Chloro-N-(8,9-difluoro-6-oxo-1,4,5,6-tetrahydro-2H-pyrano[3,4-c]isoquinolin-1-yl)-N-methylisoindoline-2-carboxamide] | 5.23
CN(C(=O)Nc1ccc(F)c(C#N)c1)C1COCc2[nH]c(=O)c3cc(F)c(F)cc3c21 (racemic) [Compound 106, 3-(3-Cyano-4-fluorophenyl)-1-(8,9-difluoro-6-oxo-1,4,5,6-tetrahydro-2H-pyrano[3,4-c]isoquinolin-1-yl)-1-methylurea] | 7.70
CCN(C(=O)Nc1ccc(F)c(C#N)c1)[C@@H]1COCc2[nH]c(=O)c3cc(F)c(F)cc3c21 (single isomer, unassigned) [Compound 138] | 8.00
CC1Cc2[nH]c(=O)c3ccccc3c2C(N(C)C(=O)Nc2ccc(F)c(Cl)c2)C1 (racemic) [Compound 26, 3-(3-Chloro-4-fluorophenyl)-1-methyl-1-(3-methyl-6-oxo-1,2,3,4,5,6-hexahydrophenanthridin-1-yl)urea] | 5.54
CN(C(=O)Nc1ccc(F)c(Cl)c1)[C@@H]1COCc2nc(OCCO)c3cc(F)c(F)cc3c21 [Compound 255, (S)-3-(3-Chloro-4-fluorophenyl)-1-(8,9-difluoro-6-(2-hydroxyethoxy)-1,4-dihydro-2H-pyrano[3,4-c]isoquinolin-1-yl)-1-methylurea] | 7.31
Cc1cc(NC(=O)N(C)C2COCc3[nH]c(=O)c4cc(Cl)ccc4c32)ccc1F (centres unmarked) [Compound 58, 1-(8-Chloro-6-oxo-1,4,5,6-tetrahydro-2H-pyrano[3,4-c]isoquinolin-1-yl)-3-(4-fluoro-3-methylphenyl)-1-methylurea] | 7.40
CCN(C(=O)Nc1ccc(F)c(Cl)c1)[C@@H]1COCc2[nH]c(=O)c3cc(F)c(F)cc3c21 (single isomer, unassigned) [Compound 88] | 8.00
CN(C(=O)Nc1ccc(F)c(C(F)F)c1)C1COCc2[nH]c(=O)c3cc(F)ccc3c21 (single isomer, unassigned) [Compound 123, 3-(3-(Difluoromethyl)-4-fluorophenyl)-1-(8-fluoro-6-oxo-1,4,5,6-tetrahydro-2H-pyrano[3,4-c]isoquinolin-1-yl)-1-methylurea] | 6.25
CC(C)CN(C(=O)Nc1ccc(F)c(Cl)c1)C1CCCc2[nH]c(=O)c3ccccc3c21 (centres unmarked) [Compound 8, 3-(3-Chloro-4-fluorophenyl)-1-isobutyl-1-(6-oxo-1,2,3,4,5,6-hexahydrophenanthridin-1-yl)urea] | 6.33
CCN(C(=O)Nc1ccc(F)c(Cl)c1)C1COCc2[nH]c(=O)c3cc(Cl)ccc3c21 (centres unmarked) [Compound 56, 3-(3-Chloro-4-fluorophenyl)-1-(8-chloro-6-oxo-1,4,5,6-tetrahydro-2H-pyrano[3,4-c]isoquinolin-1-yl)-1-ethylurea] | 7.30
CN(C(=O)N1Cc2ccccc2C1)[C@@H]1COCc2[nH]c(=O)c3cc(F)c(F)cc3c21 [Compound 218, (S)—N-(8,9-Difluoro-6-oxo-1,4,5,6-tetrahydro-2H-pyrano[3,4-c]isoquinolin-1-yl)-N-methylisoindoline-2-carboxamide] | 5.92
CN(C(=O)Nc1ccc(F)c(Cl)c1)[C@@H]1COCc2nc(OCCN)c3cc(F)c(F)cc3c21 [Compound 258, (S)-1-(6-(2-Aminoethoxy)-8,9-difluoro-1,4-dihydro-2H-pyrano[3,4-c]isoquinolin-1-yl)-3-(3-chloro-4-fluorophenyl)-1-methylurea] | 7.19

same assay, conditions: inhibition of rcDNA formation in HepDE19 cells (HepG2 derived), Tet-free medium, 7 day incubation, Quantigene 2.0 bDNA readout, top concentration 25 μM; read-out: DE-19bDNA EC50

SMILES | pEC50
CS(=O)(=O)CCN(C(=O)Nc1ccc(F)c(Cl)c1)C1COCc2[nH]c(=O)c3cc(F)c(F)cc3c21 (single isomer, unassigned) [Compound 140, 3-(3-Chloro-4-fluorophenyl)-1-(8,9-difluoro-6-oxo-1,4,5,6-tetrahydro-2H-pyrano[3,4-c]isoquinolin-1-yl)-1-(2-(methylsulfonyl)ethyl)urea] | 8.00
CN(C(=O)Nc1ccc(F)c(Cl)c1)C1CN(CCO)Cc2[nH]c(=O)c3cc(F)c(F)cc3c21 (single isomer, unassigned) [Compound 179, 3-(3-Chloro-4-fluorophenyl)-1-(8,9-difluoro-3-(2-hydroxyethyl)-6-oxo-1,2,3,4,5,6-hexahydrobenzo[c][1,7]naphthyridin-1-yl)-1-methylurea] | 5.14
CN(C(=O)Nc1ccc(F)c(C(F)F)c1)C1COCc2nc(NCCN)c3cc(F)c(F)cc3c21 (single isomer, unassigned) [Compound 247, 1-(6-((2-Aminoethyl)amino)-8,9-difluoro-1,4-dihydro-2H-pyrano[3,4-c]isoquinolin-1-yl)-3-(3-(difluoromethyl)-4-fluorophenyl)-1-methylurea] | 7.10
CN(C(=O)Nc1ccc(F)c(F)c1)C1CCCc2[nH]c(=O)c3c(c21)CCOC3 (single isomer, unassigned) [Compound 62, 3-(3,4-Difluorophenyl)-1-methyl-1-(5-oxo-1,4,5,6,7,8,9,10-octahydro-2H-pyrano[3,4-c]quinolin-10-yl)urea] | 5.89
CC(C)(O)CN(C(=O)Nc1ccc(F)c(Cl)c1)C1COCc2[nH]c(=O)c3cc(F)ccc3c21 (single isomer, unassigned) [Compound 112, 3-(3-Chloro-4-fluorophenyl)-1-(8-fluoro-6-oxo-1,4,5,6-tetrahydro-2H-pyrano[3,4-c]isoquinolin-1-yl)-1-(2-hydroxy-2-methylpropyl)urea] | 5.72
CN(C(=O)Nc1ccc(F)c(Cl)c1)C1COCc2[nH]c(=O)c3c(c21)COCC3 (single isomer, unassigned) [Compound 83, 3-(3-Chloro-4-fluorophenyl)-1-methyl-1-(5-oxo-4,5,6,7,9,10-hexahydro-1H,3H-dipyrano[3,4-b:3′,4′-d]pyridin-10-yl)urea] | ≤ 4.60
CC(C)CN(C(=O)Nc1ccc(F)c(F)c1)C1COCc2[nH]c(=O)c3cc(F)ccc3c21 (single isomer, unassigned) [Compound 99, 3-(3,4-Difluorophenyl)-1-(8-fluoro-6-oxo-2,4,5,6-tetrahydro-1H-pyrano[3,4-c]isoquinolin-1-yl)-1-isobutylurea] | 8.00
CN(C(=O)Nc1ccc(F)cc1)C1COCc2[nH]c(=O)c3cc(F)c(F)cc3c21 (single isomer, unassigned) [Compound 103, 1-(8,9-Difluoro-6-oxo-1,4,5,6-tetrahydro-2H-pyrano[3,4-c]isoquinolin-1-yl)-3-(4-fluorophenyl)-1-methylurea] | 5.28
CN(C(=O)Nc1ccc(F)c(Cl)c1)C1COCc2[nH]c(=O)c3c(c21)CCOC3 (single isomer, unassigned) [Compound 91, 3-(3-Chloro-4-fluorophenyl)-1-methyl-1-(6-oxo-1,2,4,5,6,7,9,10-octahydrodipyrano[3,4-b:4′,3′-d]pyridin-1-yl)urea] | 4.96
CCN(C(=O)Nc1ccc(F)c(F)c1)C1CCCc2[nH]c(=O)c3c(c21)CCCC3 (single isomer, unassigned) [Compound 51, 3-(3,4-Difluorophenyl)-1-ethyl-1-(6-oxo-1,2,3,4,5,6,7,8,9,10-decahydrophenanthridin-1-yl)urea] | 7.00
CC(C)CN(C(=O)Nc1cc(F)c(F)c(F)c1)C1COCc2[nH]c(=O)c3cc(F)ccc3c21 (single isomer, unassigned) [Compound 114, 1-(8-Fluoro-6-oxo-2,4,5,6-tetrahydro-1H-pyrano[3,4-c]isoquinolin-1-yl)-1-isobutyl-3-(3,4,5-trifluorophenyl)urea] | 6.39
CN(C(=O)Nc1ccc(F)c(F)c1)C1COCc2[nH]c(=O)c3cc(F)c(F)cc3c21 (single isomer, unassigned) [Compound 118, 1-(8,9-Difluoro-6-oxo-1,4,5,6-tetrahydro-2H-pyrano[3,4-c]isoquinolin-1-yl)-3-(3,4-difluorophenyl)-1-methylurea] | 8.00
CN(C(=O)Nc1ccc(F)c(Cl)c1)C1CCCc2[nH]c(=O)c3ccccc3c21 (single isomer, unassigned) [Compound 16, 3-(3-Chloro-4-fluorophenyl)-1-methyl-1-(6-oxo-1,2,3,4,5,6-hexahydrophenanthridin-1-yl)urea] | 6.12
CN(C(=O)Nc1ccc(F)c(Cl)c1)C1CCCc2[nH]c(=O)c3ccccc3c21 (single isomer, unassigned) [Compound 17, 3-(3-Chloro-4-fluorophenyl)-1-methyl-1-(6-oxo-1,2,3,4,5,6-hexahydrophenanthridin-1-yl)urea] | 7.30
CN(C(=O)Nc1ccc(F)c(C#N)c1)C1C[S+]([O-])Cc2[nH]c(=O)c3cc(F)ccc3c21 (single isomer, unassigned) [Compound 199, 3-(3-Cyano-4-fluorophenyl)-1-(8-fluoro-3-oxido-6-oxo-1,4,5,6-tetrahydro-2H-thiopyrano[3,4-c]isoquinolin-1-yl)-1-methylurea] | 4.70
